Test results published in PubChem BioAssay (NCI).
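Method: 48-hour compound exposure of cells in 96-well plates, five concentrations, linear interpolation of endpoints. GI50 marks 50% less growth. At the TGI there is no net growth.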

What was measured:
Assay in all cases: NCI-60 cell line screen, 48 h
DU-145 prostate = system: DU-145 prostate
NCI-H460 lung = system: NCI-H460 lung
M14 melanoma = system: M14 melanoma
T-47D breast = system: T-47D breast
SW-620 colon = system: SW-620 colon
MCF7 breast = system: MCF7 breast
U251 CNS = system: U251 CNS
UO-31 renal = system: UO-31 renal
OVCAR-3 ovarian = system: OVCAR-3 ovarian
HCT-15 colon = system: HCT-15 colon
HCC-2998 colon = system: HCC-2998 colon
786-0 renal = system: 786-0 renal
NCI-H23 lung = system: NCI-H23 lung
SF-295 CNS = system: SF-295 CNS
MALME-3M melanoma = system: MALME-3M melanoma
ACHN renal = system: ACHN renal
HCT-116 colon = system: HCT-116 colon
SNB-75 CNS = system: SNB-75 CNS
SNB-19 CNS = system: SNB-19 CNS
HOP-62 NSCLC = system: HOP-62 NSCLC
HS 578T breast = system: HS 578T breast
EKVX NSCLC = system: EKVX NSCLC
RPMI-8226 leukemia = system: RPMI-8226 leukemia
OVCAR-4 ovarian = system: OVCAR-4 ovarian
SK-MEL-2 melanoma = system: SK-MEL-2 melanoma
A549 NSCLC = system: A549 NSCLC
SK-MEL-5 melanoma = system: SK-MEL-5 melanoma
MDA-MB-231 breast = system: MDA-MB-231 breast
OVCAR-5 ovarian = system: OVCAR-5 ovarian
SF-268 CNS = system: SF-268 CNS
IGROV1 ovarian = system: IGROV1 ovarian
NCI-H522 lung = system: NCI-H522 lung
TK-10 renal = system: TK-10 renal
SF-539 CNS = system: SF-539 CNS
NCI-H226 lung = system: NCI-H226 lung
A498 renal = system: A498 renal
HT29 colon = system: HT29 colon
UACC-62 melanoma = system: UACC-62 melanoma
HL-60(TB) leukemia = system: HL-60(TB) leukemia
MOLT-4 leukemia = system: MOLT-4 leukemia
LOX IMVI melanoma = system: LOX IMVI melanoma
KM12 colon = system: KM12 colon
UACC-257 melanoma = system: UACC-257 melanoma
K-562 leukemia = system: K-562 leukemia
MDA-MB-435 = system: MDA-MB-435
OVCAR-8 ovarian = system: OVCAR-8 ovarian
PC-3 prostate = system: PC-3 prostate
BT-549 breast = system: BT-549 breast
SN12C renal = system: SN12C renal
SR leukemia = system: SR leukemia
HOP-92 NSCLC = system: HOP-92 NSCLC
NCI/ADR-RES ovarian = system: NCI/ADR-RES ovarian
SK-MEL-28 melanoma = system: SK-MEL-28 melanoma
SK-OV-3 ovarian = system: SK-OV-3 ovarian
CCRF-CEM leukemia = system: CCRF-CEM leukemia
COLO 205 colon = system: COLO 205 colon
RXF 393 renal = system: RXF 393 renal

`CCCc1n(Cc2ccc3ccccc3n2)cc[n+]1Cc1ccc2ccccc2c1` was tested. Which GI50 (DU-145 prostate) did it give?
Its GI50 is 1520 nM.

And the TGI (DU-145 prostate)?
The TGI was 12800 nM.

And the GI50 (NCI-H460 lung)?
Its GI50 is 658 nM.

What about the TGI (NCI-H460 lung) of the same compound?
The TGI was 10600 nM.

What about the GI50 (M14 melanoma) of the same compound?
The GI50 was 637 nM.

And the TGI (M14 melanoma)?
Its TGI is 2760 nM.

What about the GI50 (T-47D breast) of the same compound?
The GI50 was 307 nM.

What about the TGI (T-47D breast) of the same compound?
The TGI was 5550 nM.

What about the GI50 (SW-620 colon) of the same compound?
Its GI50 is 1910 nM.

What about the TGI (SW-620 colon) of the same compound?
The TGI was 11700 nM.

What about the GI50 (MCF7 breast) of the same compound?
Its GI50 is 647 nM.

What about the TGI (MCF7 breast) of the same compound?
The TGI was 4700 nM.

What about the GI50 (U251 CNS) of the same compound?
The GI50 was 380 nM.

What about the TGI (U251 CNS) of the same compound?
Its TGI is 2540 nM.

And the GI50 (UO-31 renal)?
The GI50 was 12000 nM.

And the TGI (UO-31 renal)?
The TGI was 25300 nM.

What about the GI50 (OVCAR-3 ovarian) of the same compound?
Its GI50 is 452 nM.

And the TGI (OVCAR-3 ovarian)?
Its TGI is 1960 nM.

And the GI50 (HCT-15 colon)?
Its GI50 is 12000 nM.

And the TGI (HCT-15 colon)?
Its TGI is 25400 nM.

What about the GI50 (HCC-2998 colon) of the same compound?
Its GI50 is 564 nM.

And the TGI (HCC-2998 colon)?
Its TGI is 2330 nM.

What about the GI50 (786-0 renal) of the same compound?
The GI50 was 2930 nM.

What about the TGI (786-0 renal) of the same compound?
Its TGI is 10200 nM.

What about the GI50 (NCI-H23 lung) of the same compound?
Its GI50 is 479 nM.

And the TGI (NCI-H23 lung)?
The TGI was 10600 nM.

What about the GI50 (SF-295 CNS) of the same compound?
Its GI50 is 2060 nM.

What about the TGI (SF-295 CNS) of the same compound?
The TGI was 5760 nM.

What about the GI50 (MALME-3M melanoma) of the same compound?
Its GI50 is 526 nM.

And the TGI (MALME-3M melanoma)?
The TGI was 2750 nM.

And the GI50 (ACHN renal)?
Its GI50 is 4080 nM.

And the TGI (ACHN renal)?
Its TGI is 15600 nM.

And the GI50 (HCT-116 colon)?
The GI50 was 1060 nM.

What about the TGI (HCT-116 colon) of the same compound?
The TGI was 7050 nM.

What about the GI50 (SNB-75 CNS) of the same compound?
The GI50 was 410 nM.

What about the TGI (SNB-75 CNS) of the same compound?
Its TGI is 3470 nM.

And the GI50 (SNB-19 CNS)?
The GI50 was 551 nM.

What about the TGI (SNB-19 CNS) of the same compound?
Its TGI is 11400 nM.

What about the GI50 (HOP-62 NSCLC) of the same compound?
The GI50 was 1630 nM.

What about the TGI (HOP-62 NSCLC) of the same compound?
The TGI was 5380 nM.

And the GI50 (HS 578T breast)?
The GI50 was 2130 nM.

And the TGI (HS 578T breast)?
The TGI was 9420 nM.

What about the GI50 (EKVX NSCLC) of the same compound?
The GI50 was 2160 nM.

What about the TGI (EKVX NSCLC) of the same compound?
The TGI was 14900 nM.

What about the GI50 (RPMI-8226 leukemia) of the same compound?
The GI50 was 275 nM.

And the TGI (RPMI-8226 leukemia)?
The TGI was 1620 nM.

And the GI50 (OVCAR-4 ovarian)?
The GI50 was 357 nM.

What about the TGI (OVCAR-4 ovarian) of the same compound?
The TGI was 6590 nM.

And the GI50 (SK-MEL-2 melanoma)?
Its GI50 is 1060 nM.

What about the TGI (SK-MEL-2 melanoma) of the same compound?
The TGI was 2850 nM.

What about the GI50 (A549 NSCLC) of the same compound?
Its GI50 is 1880 nM.

And the TGI (A549 NSCLC)?
Its TGI is 11800 nM.

And the GI50 (SK-MEL-5 melanoma)?
The GI50 was 466 nM.

And the TGI (SK-MEL-5 melanoma)?
Its TGI is 1690 nM.

What about the GI50 (MDA-MB-231 breast) of the same compound?
Its GI50 is 1050 nM.

And the TGI (MDA-MB-231 breast)?
The TGI was 2860 nM.

And the GI50 (OVCAR-5 ovarian)?
The GI50 was 2390 nM.

And the TGI (OVCAR-5 ovarian)?
Its TGI is 12500 nM.

And the GI50 (SF-268 CNS)?
The GI50 was 1010 nM.

What about the TGI (SF-268 CNS) of the same compound?
The TGI was 10600 nM.

What about the GI50 (IGROV1 ovarian) of the same compound?
The GI50 was 807 nM.

What about the TGI (IGROV1 ovarian) of the same compound?
The TGI was 3480 nM.

And the GI50 (NCI-H522 lung)?
The GI50 was 249 nM.

What about the TGI (NCI-H522 lung) of the same compound?
Its TGI is 1130 nM.

And the GI50 (TK-10 renal)?
Its GI50 is 1210 nM.

What about the TGI (TK-10 renal) of the same compound?
The TGI was 2810 nM.

And the GI50 (SF-539 CNS)?
The GI50 was 861 nM.

What about the TGI (SF-539 CNS) of the same compound?
The TGI was 10400 nM.

And the GI50 (NCI-H226 lung)?
Its GI50 is 1200 nM.

And the TGI (NCI-H226 lung)?
Its TGI is 7600 nM.

What about the GI50 (A498 renal) of the same compound?
The GI50 was 1810 nM.

And the TGI (A498 renal)?
Its TGI is 6680 nM.

What about the GI50 (HT29 colon) of the same compound?
The GI50 was 409 nM.

And the TGI (HT29 colon)?
Its TGI is 2070 nM.

And the GI50 (UACC-62 melanoma)?
Its GI50 is 574 nM.

And the TGI (UACC-62 melanoma)?
Its TGI is 2390 nM.

What about the GI50 (HL-60(TB) leukemia) of the same compound?
The GI50 was 312 nM.

And the TGI (HL-60(TB) leukemia)?
The TGI was 933 nM.

And the GI50 (MOLT-4 leukemia)?
Its GI50 is 708 nM.

And the TGI (MOLT-4 leukemia)?
The TGI was 6080 nM.

What about the GI50 (LOX IMVI melanoma) of the same compound?
Its GI50 is 1070 nM.

And the TGI (LOX IMVI melanoma)?
Its TGI is 2950 nM.

What about the GI50 (KM12 colon) of the same compound?
Its GI50 is 626 nM.

What about the TGI (KM12 colon) of the same compound?
Its TGI is 2500 nM.

And the GI50 (UACC-257 melanoma)?
The GI50 was 347 nM.

What about the TGI (UACC-257 melanoma) of the same compound?
Its TGI is 1720 nM.

And the GI50 (K-562 leukemia)?
The GI50 was 428 nM.

What about the TGI (K-562 leukemia) of the same compound?
The TGI was 8270 nM.

What about the GI50 (MDA-MB-435) of the same compound?
The GI50 was 443 nM.

And the TGI (MDA-MB-435)?
Its TGI is 2170 nM.

What about the GI50 (OVCAR-8 ovarian) of the same compound?
Its GI50 is 779 nM.

What about the TGI (OVCAR-8 ovarian) of the same compound?
Its TGI is 4650 nM.

What about the GI50 (PC-3 prostate) of the same compound?
Its GI50 is 487 nM.

And the TGI (PC-3 prostate)?
The TGI was 4960 nM.

And the GI50 (BT-549 breast)?
Its GI50 is 230 nM.

And the TGI (BT-549 breast)?
The TGI was 1430 nM.

And the GI50 (SN12C renal)?
The GI50 was 478 nM.

What about the TGI (SN12C renal) of the same compound?
Its TGI is 3510 nM.

And the GI50 (SR leukemia)?
Its GI50 is 472 nM.

What about the TGI (SR leukemia) of the same compound?
Its TGI is 3030 nM.

What about the GI50 (HOP-92 NSCLC) of the same compound?
Its GI50 is 188 nM.

What about the TGI (HOP-92 NSCLC) of the same compound?
The TGI was 1120 nM.

What about the GI50 (NCI/ADR-RES ovarian) of the same compound?
Its GI50 is 32800 nM.

What about the TGI (NCI/ADR-RES ovarian) of the same compound?
The TGI was greater than 100000 nM.

And the GI50 (SK-MEL-28 melanoma)?
The GI50 was 1240 nM.

And the TGI (SK-MEL-28 melanoma)?
The TGI was 6230 nM.

And the GI50 (SK-OV-3 ovarian)?
Its GI50 is 1260 nM.

And the TGI (SK-OV-3 ovarian)?
The TGI was 4020 nM.

And the GI50 (CCRF-CEM leukemia)?
Its GI50 is 688 nM.

And the TGI (CCRF-CEM leukemia)?
Its TGI is 6100 nM.

And the GI50 (COLO 205 colon)?
The GI50 was 319 nM.

What about the TGI (COLO 205 colon) of the same compound?
The TGI was 1340 nM.

And the GI50 (RXF 393 renal)?
The GI50 was 2980 nM.

And the TGI (RXF 393 renal)?
Its TGI is 14600 nM.
